Measurements: ChEMBL document CHEMBL5346879, “Identification of a short ACE2-derived stapled peptide targeting the SARS-CoV-2 spike protein” (Eur J Med Chem, 2023)
Where a SMILES comes first, the peptide text is derived from it. Bridges are numbered along the chain shown (N, C = ends). [ ]: non-standard residue; d: D form. S5 = C=CCCC[C@](C)(N)C(=O)O

Columns and labels:
[1] = Stability in human plasma assessed as peptide degradation at 200 ug/ml incubated for 48 hrs by LC-MS/MS analysis; format: ADME, cell-free; conditions: at 200 µg/mL
[2] = target: Spike glycoprotein/Angiotensin-converting enzyme 2 (Severe acute respiratory syndrome coronavirus 2) (UniProt Q9BYF1+P0DTC2); assay: Inhibition of SARS-CoV-2 spike protein RBD- human ACE2 interaction at 30 uM incubated for 1 hr by colorimetric ELISA assay relative to control
[3] = target: Spike glycoprotein/Angiotensin-converting enzyme 2 (Severe acute respiratory syndrome coronavirus 2, UniProt P0DTC2); assay: Inhibition of SARS-CoV-2 spike protein RBD- human ACE2 interaction incubated for 1 hr by colorimetric ELISA assay

H-HEAEDLFYQ-NH2
Stability [1]: Stable

CC(C)C[C@@H]1NC(=O)[C@H](CC(=O)O)NC(=O)[C@H](CCC(=O)O)NC(=O)[C@@](C)(NC(=O)[C@H](CCC(=O)O)NC(=O)[C@@H](N)Cc2c[nH]cn2)CCC/C=C\CCC[C@@](C)(C(=O)N[C@@H](Cc2ccc(O)cc2)C(=O)N[C@@H](CCC(N)=O)C(N)=O)NC1=O (H-HE[S5]EDL[S5]YQ-NH2; staple (Z) 3-7)
inhibition [2]: 55%
IC50 [3]: 21 µM
Stability [1]: Stable
